The text below walks through data of ChEMBL document CHEMBL6103589, “Synthesis and evaluation of novel ebselen derivatives as urease inhibitors for combating Helicobacter pylori infections” (Eur J Med Chem, 2025).

Activity calls are given as the source filed them. No cut-off for these calls is given here.

Test [1] has as its system Helicobacter pylori. The experiment in a line: In vivo protection against Helicobacter pylori ATCC 43504 infected in BALB/c mouse gastric mucosa model assessed as reduction in hyperplasia at 25 mg/kg administered once a day for 2 weeks by HE staining based analysis. The format is functional, organism-based.
In test [2] the test system is Helicobacter pylori. The experiment in a line: Protection against Helicobacter pylori ATCC 43504 infected (MOI 400:1) in human GES1 cell injury model assessed as necrotic cells at 50 uM pre-treated for 2 hrs followed by bacterial infection measured after 6 hrs by Annexin/V-FITC staining based flow cytometry analysis (reference value: 6.36%). The following applies: time 8 hrs. Format: functional.

Test [3] has as its system Helicobacter pylori. The test can be described thus: Protection against Helicobacter pylori ATCC 43504 infected (MOI 100:1) in human GES1 cell injury model assessed as late apoptotic cells at 50 uM pre-treated for 2 hrs followed by bacterial infection measured after 6 hrs by Annexin/V-FITC staining based flow cytometry analysis (reference value: 4.16%). The format is functional. The following applies: time 8 hrs.

Test [4] relates to Helicobacter pylori. The test can be described thus: Protection against Helicobacter pylori ATCC 43504 infected (MOI 50:1) in human GES1 cell injury model assessed as necrotic cells at 50 uM pre-treated for 2 hrs followed by bacterial infection measured after 6 hrs by Annexin/V-FITC staining based flow cytometry analysis (reference value: 2.85%). The format is functional. The following applies: time 8 hrs.

Test [5] deals with Helicobacter pylori. The test can be described thus: Protection against Helicobacter pylori ATCC 43504 infected (MOI 400:1) in human GES1 cell injury model assessed as necrotic cells at 25 uM pre-treated for 2 hrs followed by bacterial infection measured after 6 hrs by Annexin/V-FITC staining based flow cytometry analysis (reference value: 6.36%). The format is functional. The following applies: time 8 hrs. A general note: In flow cytometry, cells or beads pass a laser one at a time.

Take `O=C(Oc1n[se]c2ccccc12)c1cccc(F)c1`: the outcome in the test with Helicobacter pylori [1] was Active. The Activity in the test on Helicobacter pylori [2] worked out at 2.26%; in the test on Helicobacter pylori [3], 0.23%; with Helicobacter pylori [4], 0.02%; in the test on Helicobacter pylori [5], 0.32%.
